# Source: patent US20230250433A1, “METHODS AND COMPOSITIONS FOR TREATMENT OF APC-DEFICIENT CANCER” (Board of Regents, The University of Texas System, priority 2020, published 2023)
# Legend:
# Axl = biological target: T1, Axl (Mus musculus, UniProt Q00993); test: Immunoblots for Axl and phospho-Axl; type: cell-based; details: APC-WT and APC-KO MC38 cells; R428 0.2 μM 24 h; rmGAS6 24 h
# T1 construct: immunoblots for Axl and phospho-Axl in APC-WT and APC-KO MC38 cells after R428 treatment (0.2 μM, 24 h); endogenous in cells; host or cells: MC38 mouse colorectal cancer cells, APC-WT and isogenic APC-KO
# T1 sequence (Q00993 19-888): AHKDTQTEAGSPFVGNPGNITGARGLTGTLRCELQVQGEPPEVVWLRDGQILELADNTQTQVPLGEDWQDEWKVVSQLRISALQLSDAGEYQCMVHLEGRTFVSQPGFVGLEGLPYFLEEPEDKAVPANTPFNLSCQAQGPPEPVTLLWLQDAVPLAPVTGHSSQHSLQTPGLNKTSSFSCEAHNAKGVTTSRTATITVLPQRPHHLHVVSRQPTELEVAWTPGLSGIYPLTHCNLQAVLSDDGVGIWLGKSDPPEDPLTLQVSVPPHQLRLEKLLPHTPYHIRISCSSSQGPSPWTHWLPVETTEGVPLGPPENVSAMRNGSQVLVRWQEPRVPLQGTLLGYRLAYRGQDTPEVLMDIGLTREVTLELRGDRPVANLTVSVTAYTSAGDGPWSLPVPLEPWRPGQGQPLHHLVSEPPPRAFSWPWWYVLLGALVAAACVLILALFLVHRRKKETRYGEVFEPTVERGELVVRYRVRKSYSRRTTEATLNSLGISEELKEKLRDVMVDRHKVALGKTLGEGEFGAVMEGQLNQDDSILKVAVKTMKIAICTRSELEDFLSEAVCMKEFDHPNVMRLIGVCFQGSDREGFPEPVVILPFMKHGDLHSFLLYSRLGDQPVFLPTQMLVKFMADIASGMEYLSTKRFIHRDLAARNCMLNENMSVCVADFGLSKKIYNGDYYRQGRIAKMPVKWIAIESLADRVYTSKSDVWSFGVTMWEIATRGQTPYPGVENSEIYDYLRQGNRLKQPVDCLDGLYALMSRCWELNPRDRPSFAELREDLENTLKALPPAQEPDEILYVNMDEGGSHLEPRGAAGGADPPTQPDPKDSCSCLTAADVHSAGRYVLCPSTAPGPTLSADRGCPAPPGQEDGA
# Source text: (§1) The red box indicates Axl. […] Six replicates per group. two-tailed t-test. *P<0.05. […] Epithelial cells are stained with EpCam and indicated by GFP. X63 magnification. […] Total flux measurement of at the end point. **P<0.01. two-tailed t-test. […] Total flux measurement of tumors was done at the end point. **P<0.01. two-tailed t-test.
# (§2) Gas6 is a ligand of Axl and is secreted mainly by tumor-associated macrophages in the TME (Loges et al., 2010), raising the possibility that macrophage-derived Gas6 might activate Axl to support the growth of APC-deficient cancer cells.
# Cell lysates were prepared with RIPA lysis buffer (Roche) with protease inhibitor […] Immunoblotting was performed following standard protocol. Antibodies were purchased from the indicated companies.
# [1] = system: LS180 and HT-29 cell lines; test: Colony formation assay with Gas6 and R428; type: cell-based, human; details: Gas6 25 ng with R428 1 μM, 36 hr
# Source text: as §1, §2
# Colorectal cancer cell proliferation in vitro was assayed through colony formation. 1×10^3 cells were seeded in each well of 6-well plates and cultured for 5-7 days. At the end point, cells were fixed and stained with 0.5% crystal violet in 25% methanol for 1 hr. These studies were performed in triplicate.
# [2] = system: APC-WT and APC-KO MC38 cells; test: Cell viability assay with R428; type: cell-based, mouse; details: R428 0.5 μM, 48 h
# Source text: as §1, §2
# Raw264.7 cells = test: RT-qPCR of M2 macrophage signature genes in Raw264.7 cells with conditioned media; type: cell-based, mouse; details: conditioned media from APC-KO MC38 cells, 30 h
# Protocol: (§3) Scale bars, 50μm. […] Scale bars, 100 μm. […] (isTDO2 and isTDO2/shCXCL5 #2 groups, n=7, isTDO2/shCXCL5 #3, n=8). ****P<0.0001. two-tailed t-test. […] (shControl and shCXCL5 #2 groups, n=7, shCXCL5 #3, n=8). ****P<0.0001. two-tailed t-test.
# (§4) RNA was isolated from cells using Trizol (Invitrogen) following the manufacturer's instructions. RNA (200-500 ng) was first treated with RNase-free DNase I using the DNA-free kit (Ambion) to remove all genomic DNA, and then reverse-transcribed into cDNA using an ABI High Capacity cDNA RT Kit (Invitrogen). The cDNA was analyzed using real-time quantitative PCR (SYBR Green, Invitrogen) with an Applied Biosystems 7900 Sequence Detection System. Each reaction was performed in triplicate. The expression of each gene was normalized by that of mouse Actin or human GAPDH.
# BMDM [3] = test: RT-qPCR analysis of Gas6 expression in BMDM; type: cell-based, mouse; details: Kyn 1 mM, CXCL5 50 ng, Gas6 25 ng, 24 hr
# Protocol: as §1
# (§5) To evaluate whether secreted factors from cancer cells might upregulate Gas6 expression in macrophages, BMDMs were incubated with conditioned media from MC38 cell lines. […] (FIG. 15H). Finally, to validate the roles of Gas6 in promoting tumor growth in vivo, CT26 cell lines and two independent Raw 264.7 shGas6 cell lines were co-injected into syngeneic Balb/CJ mice (FIG. 15I).
# as §4
# Raw264.7 = test: Transwell migration assay of macrophages in conditioned media; type: cell-based, mouse; details: recombinant CXCL5 protein 50 ng, 36 hr
# Protocol: Two-way ANOVA analysis. […] Dox food was applied at day 5 post-orthotopic injection to induce TDO2 knockdown in vivo. n=4 per group. n.s.P>0.05, *P<0.05, […], ****P<0.0001. two-tailed t-test. […] FIGS. 12D and 12E show quantification of macrophages (F4/80+; FIG. 12D) and M2 macrophages (CD206+; FIG. 12E) in tumors shown in FIG. 12C. CyTOF data analyzed by FlowJo. Data represent mean±s.d., n=3 per group. *P<0.05, **P<0.01. two-tailed t-test. […] Recombinant CXCL5 protein (50 ng) and SX-682 (1 μM) were added to harvested condition media for 36 hr. Scale bar, 100 μm. n=3 biological replicates. Quantification is shown in lower panel. n.s. P>0.05, ***P<0.001, ****P<0.0001. two-tailed t-test. […] Clondronate liposomes or control encapsome liposomes were given intraperitoneally (100 μl) at day 2 post-orthotopic injection and three times a week. […]
# Macrophages (1×10^4 for Raw264.7 and BMDM) were suspended in serum-free culture medium and seeded into 24-well Transwell inserts ([…]). […] After 24 h, the migrated macrophages were fixed and stained with crystal violet (0.05%, sigma), and then counted as cells per field of view under microscope or measured as OD590 nm (expressed as migration index) after crystal violet was dissolved.
# CT26 = test: Orthotopic co-injection of CT26 cells and Raw264.7 macrophages, tumor growth; type: in vivo, mouse; details: Raw264.7 pre-treated with 100 ng of CXCL5 for 48 h before injection; BalB/CJ mice
# Protocol: as §1, §5
# Mice were grouped by 5 animals in large plastic cages and were maintained under pathogen-free conditions. All animal studies were performed with the approval of MD Anderson Cancer Center's Institutional Animal Care and Use Committee (IACUC). NSG (NOD.Cg-Prkdc^scid Il2rg^tm1Wjl/SzJ), C57BL/J6J, and BALB/cJ mice were purchased from Jackson laboratory (Stock No: 005557, 000664, 000651). Colorectal orthotopic xenograft tumor models were established by following protocol (Tseng et al., 2007, JoVE).
# BMDM [4] = test: RT-qPCR of M2 macrophage signature genes in BMDM; type: cell-based, mouse; details: CXCL5 50 ng, Kyn 1 mM, 24 hr
# Protocol: as §3, §4
compound,measurement,setting,value
Nc1nc(Nc2ccc3c(c2)CCC(N2CCCC2)CC3)nn1-c1cc2c(nn1)-c1ccccc1CCC2 (centres unmarked) [R428],Axl phosphorylation,Axl,reduce Axl phosphorylation
same,effect on Gas6-promoted cancer cell growth,[1],reversed by R428 treatment
same,sensitivity of APC-deficient vs APC-intact MC38 cells,[2],increased sensitivity
"CXCL5: recombinant CXCL5 protein, cytokine",M2 macrophage markers decreased by TDO2 knockdown,Raw264.7 cells,rescued by CXCL5 supplementation
same,Gas6 expression,BMDM [3],increased Gas6 expression
same,macrophage recruitment with CM from APC-KO TDO2 depleted MC38 cells,Raw264.7,rescue of macrophage recruitment
same,growth of CT26 tumors co-injected with pre-treated macrophages,CT26,promoted the growth of CT26 significantly
same,M2 macrophage markers,BMDM [4],M2 macrophage markers increased
